The results in this text go back to US20240336615A1, “CYCLOPROPYL-(HETERO)ARYL-SUBSTITUTED ETHYL-SULFOXIME-PYRIDINE DERIVATIVES” (Boehringer Ingelheim Vetmedica GmbH, priority 2023, published 2024).

In general, mortality refers to the percentage killed.

Bounds are passed on as bounds.

In test [1] the test system is adult Ctenocephalides felis fleas. The test is described as follows: Contact activity against adult Ctenocephalides felis (Example 4). The following applies: adult C. felis, coated pipe cleaner in vial, 72 hours post-treatment, read-out: EC50 (contact activity, percentage mortality). The protocol: Compounds of formulae (I), (Ia) and/or (Ib) dissolved in 100% DMSO are diluted in acetone to a desired concentration. The resulting formulation is used to coat the fibers of a 0.5-inch-long piece of pipe cleaner placed in a glass scintillation vial. The vial is capped with a rubber gasket and filter paper insert. After the acetone has evaporated, ten adult Ctenocephalides felis fleas are added to each vial. The vials are then incubated at 22° C., 80% relative humidity, and 12 hours of light/12 hours of dark until a visual evaluation for mortality is performed at 72 hours post-treatment. Compound efficacy at a given dose is expressed as percentage mortality and adjusted to remove background mortality observed in control vials containing DMSO only. A dose response series of treated vials is implemented to determine EC50 values.

The next test deals with Laodelphax striatellus. The test is described as follows: Insecticidal test on Laodelphax striatellus (Example 16). It is filed as in vivo. The settings on record: 192 h, rice seedling dip, 3rd-instar nymphs, 8 days after inoculation, read-out: activity level (corrected mortality rate). The protocol:
The compounds of formula (I), (Ia) and/or (Ib) of the present invention or salts thereof are separately dispersed in water and diluted to 500 ppm and 50 ppm. Rice plant seedlings are dipped in the dispersion for about 30 seconds. After air dried, the seedlings are put into a separate glass test tube and inoculated with ten 3rd-instar nymphs of Laodelphax striatellus and then the glass test tube is kept in a room at 25° C. 8 days after the inoculation, the numbers of the dead and alive insects are counted. The corrected mortality rate is calculated according to the following formula and the insecticidal activity is evaluated according to the following criteria.

The next test deals with Myzus persicae. The test is described as follows: Insecticidal test on Myzus persicae (Example 17). The settings on record: 144 h, foliar application on Chinese cabbage, 6 days after application, read-out: control efficacy level (control rate). It is filed as in vivo. The source says:
The compounds of formula (I), (Ia) and/or (Ib) of the present invention or salts thereof are separately dispersed in water and diluted to 500 ppm and 50 ppm. Chinese cabbage plants are planted in plastic pots (diameter: 8 cm, height: 8 cm). Aphids (Myzus persicae) are propagated on the plants and then the number of surviving aphids is counted. The dispersion is applied to the foliage of the potted plants. After the plants are air dried, these are kept in a greenhouse. 6 days after the application, the number of the alive insects is counted on the plants. The control rate is calculated according to the following formula and the control efficacy is evaluated according to the following criteria. [formula] • Ta: the number of alive insects before the foliar application in a treated plot • T: the number of alive insects after the foliar application in a treated plot • Ca: the number of alive insects before the foliar application in an untreated plot • C: the number of alive insects after the foliar application in an untreated plot • A: the control rate is 100% • B: the control rate is 90 to 99% • C: the control rate is 80 to 89% • D: the control rate is 50 to 79%

A further test relates to Spodoptera litura. The test is described as follows: Insecticidal test on Spodoptera litura (Example 14). In kind it is in vivo. The following applies: foliar, 192 h, cabbage leaf dip, 2nd-instar larvae, 8 days after inoculation, read-out: activity level (corrected mortality rate). The procedure: The compounds of formula (I), (Ia) and/or (Ib) of the present invention or salts thereof are separately dispersed in water and diluted to 500 ppm and 50 ppm. Cabbage leaves are dipped in the dispersion for about 30 seconds. After air dried, the leaves are placed in a plastic Petri dish with a diameter of 9 cm and inoculated with ten 2nd-instar larvae of Spodoptera litura, after which the dish is closed and then allowed to stand in a room at 25° C. 8 days after the inoculation, the numbers of the dead and alive insects are counted. The corrected mortality rate is calculated according to the following formula and the insecticidal activity is evaluated according to the following criteria.
[formula] [formula] • A: the corrected mortality rate is 100% • B: the corrected mortality rate is 90 to 99% • C: the corrected mortality rate is 80 to 89% • D: the corrected mortality rate is 50 to 79%

Test [2] concerns adult C. felis fleas. The test is described as follows: Ingestion activity against adult Ctenocephalides felis, membrane feeding, alternative method (Examples 7 and 13). The following applies: Ctenocephalides felis. The protocol: Selected compounds of formula (I), (Ia) and (Ib) and compound “125” of WO 2021/033141 dissolved in 100% DMSO are diluted in bovine blood with sodium heparin anti-coagulant. The resulting formulation is offered via an artificial membrane feeding system to approximately 15 adult C. felis fleas previously dispensed into 24-well plates. The plates are then incubated in a double-chambered device. Visual evaluation for mortality is performed at 48 hours post-treatment. Compound efficacy at a given dose is expressed as percentage mortality and determined by normalization to positive and negative controls. A dose response series is implemented to determine EC50 values.
Compounds of formulae (I), (Ia) and/or (Ib) dissolved in 100% DMSO are diluted in bovine blood with sodium heparin anti-coagulant. The resulting formulation is offered via an artificial membrane feeding system to approximately 15 adult C. felis fleas previously dispensed into 24-well plates. The plates are then incubated in a double-chambered device. Visual evaluation for mortality is performed at 48 hours post-treatment. Compound efficacy at a given dose is expressed as percentage mortality and determined by normalization to positive and negative controls. A dose response series is implemented to determine EC50 values.

For test [3], the system named is adult C. felis fleas. The test is described as follows: Ingestion activity against adult Ctenocephalides felis, membrane feeding, motility (Example 6). The following applies: 48 h, bovine blood via artificial membrane, 48h post treatment, read-out: EC50 (ingestion activity, % motility reduction). The procedure: Compounds of formulae (I), (Ia) and/or (Ib) dissolved in 100% DMSO are added to bovine blood and offered via an artificial membrane feeding system to adult C. felis fleas. The motility of fleas is then visually inspected 48h post treatment. Efficacy is expressed in % motility reduction compared to controls containing blood treated with DMSO only. A dose response series is implemented to determine EC50 values.

Test [4] concerns adult R. sanguineus ticks. The test is described as follows: Contact activity against adult Rhipicephalus sanguineus (Example 5). The following applies: coated vials, 48 hours post-treatment, read-out: EC50 (contact activity, percentage mortality). The procedure:
Compounds of formulae (I), (Ia) and/or (Ib) formulated in 100% DMSO are diluted in a solution containing acetone and Triton X-100 (0.02%). The resulting formulation is used to coat the inner walls of glass scintillation vials and the filter paper covering the cap of the vial. Once dried, ten adult R. sanguineus ticks are added to the vials. The vials are incubated at 24° C., 95% relative humidity, and 12 hours of light/12 hours of dark until evaluation. Ticks are visually evaluated for mortality at 48 hours post-treatment. Compound efficacy at a given dose is expressed as percentage mortality. A dose response series is implemented to determine EC50 values.

Another test relates to Plutella xylostella. The test is described as follows: Insecticidal test on Plutella xylostella (Example 15). In kind it is in vivo. The settings on record: 144 h, Chinese cabbage seedling dip, 6 days after dip treatment, read-out: activity level (corrected mortality rate). The protocol: The compounds of formula (I), (Ia) and/or (Ib) of the present invention or salts thereof are separately dispersed in water and diluted to 500 ppm and 50 ppm. Ten adults of Plutella xylostella are released onto Chinese cabbage seedlings and allowed to lay eggs thereon. 2 days after the release of the adults, the seedling is dipped in the dispersion for about 30 seconds. After air dried, the seedling is kept in a room at 25° C. 6 days after the dip treatment, the numbers of the dead and alive insects are counted. The corrected mortality rate is calculated according to the following formula and the insecticidal activity is evaluated according to the following criteria.

Where [5] appears, read: adult C. felis, bovine blood with sodium heparin, membrane feeding, 48 hours post-treatment, read-out: EC50 (ingestion activity, percentage mortality, alternative method).
[6] abbreviates: alternative method according to Example 7, mortality at 48 hours post-treatment, read-out: C. felis membrane feeding (ingestion/blood feeding) activity EC50.

Regarding `CCS(=N)(=O)c1cc(-c2noc(C3(C(F)(F)F)CC3)n2)cnc1-c1nc2cc(C(F)(F)C(F)(F)F)cnc2n1C` (stereo not shown) [Compound 3], the EC50 is under 10 µM in test [1]; under 1 µM in the test on adult C. felis fleas [2] (setting [5]); 0.448 µM in the test on adult C. felis fleas [2] (setting [6]); under 1 µM in the test on adult C. felis fleas [3]; 10 to 100 µM in test [4]. The mortality at 50 ppm with Laodelphax striatellus, in the test on Spodoptera litura and with Plutella xylostella was 100% in each case. In addition, the pest or weed control at 50 ppm in the test with Myzus persicae was 100%.
On to `CCS(=N)(=O)c1cc(-c2noc(C3(F)CC3)n2)cnc1-c1nc2cc(C(F)(F)C(F)(F)F)cnc2n1C` (stereo not shown) [Compound 5], for which the EC50 in test [1] was under 10 µM; in the test with adult C. felis fleas [2] (setting [5]), 1 to 10 µM; with adult C. felis fleas [2] (setting [6]), 1.08 µM; in the test on adult C. felis fleas [3] it was 1 to 10 µM; in test [4] it was 10 to 100 µM. Moreover, the mortality at 500 ppm in the test on Laodelphax striatellus, in the test with Spodoptera litura and with Plutella xylostella was 100% throughout. Moreover, the pest or weed control at 500 ppm with Myzus persicae is 100%.
With `CCS(=N)(=O)c1cc(-c2noc(C3CC3)n2)cnc1-c1nc2cc(C(F)(F)C(F)(F)F)nnc2n1C` (stereo not shown) [Compound 8], the EC50 in test [1] was under 10 µM; in the test on adult C. felis fleas [2] (setting [5]) it was under 1 µM; in the test on adult C. felis fleas [2] (setting [6]), 0.643 µM; with adult C. felis fleas [3] it was 1 to 10 µM; in test [4], 10 to 100 µM. For the same compound, the mortality at 500 ppm in the test on Laodelphax striatellus and with Plutella xylostella was 100% in each case. For the same compound, in the test on Myzus persicae, the pest or weed control at 500 ppm was found to be 100%.
For the compound `CCS(=N)(=O)c1cc(-c2cc(C3CC3)ns2)cnc1-c1nc2cc(C(F)(F)C(F)(F)F)cnc2n1C` (stereo not shown) [Compound 20], the EC50 in test [1] is under 10 µM; with adult C. felis fleas [2] (setting [5]) it was 1 to 10 µM; in the test with adult C. felis fleas [3], under 1 µM; in test [4], 10 to 100 µM. For the same compound, the mortality at 50 ppm with Laodelphax striatellus, with Spodoptera litura and in the test with Plutella xylostella was 100% in each case.
For `CCS(=N)(=O)c1cc(-c2cn(C3CC3)cn2)cnc1-c1nc2cc(C(F)(F)C(F)(F)F)cnc2n1C` (stereo not shown) [Compound 21], the EC50 in test [1] is 10 to 100 µM; in the test with adult C. felis fleas [2] (setting [5]), under 1 µM; in the test with adult C. felis fleas [2] (setting [6]), 0.403 µM; with adult C. felis fleas [3], under 1 µM. In addition, the mortality at 500 ppm in the test with Laodelphax striatellus, in the test on Spodoptera litura and in the test with Plutella xylostella was 100% each time. Besides, in the test on Myzus persicae, the pest or weed control at 500 ppm worked out at 100%.
`CCS(=N)(=O)c1cc(-c2cnn(C3CC3)c2)cnc1-c1nc2cc(C(F)(F)C(F)(F)F)cnc2n1C` (stereo not shown) [Compound 22]: the EC50 in test [1] was 10 to 100 µM; in the test with adult C. felis fleas [2] (setting [5]), under 1 µM; with adult C. felis fleas [2] (setting [6]), 0.981 µM; in the test on adult C. felis fleas [3], under 1 µM. The mortality at 50 ppm with Laodelphax striatellus and with Plutella xylostella was 100% in each case. For the same compound, the pest or weed control at 50 ppm in the test on Myzus persicae stood at 100%. The mortality at 500 ppm with Spodoptera litura is 100%.
Take `CCS(=N)(=O)c1cc(-c2cc(C3CC3)sn2)cnc1-c1nc2cc(C(F)(F)C(F)(F)F)cnc2n1C` (stereo not shown) [Compound 25]: the results for the EC50 (in test [1]; in the test with adult C. felis fleas [2] (setting [5]); in the test with adult C. felis fleas [3]) were 10 to 100 µM, 1 to 10 µM and under 1 µM, respectively. The mortality at 500 ppm with Laodelphax striatellus amounted to 100%. The pest or weed control at 50 ppm in the test on Myzus persicae was determined as 100%. The mortality at 50 ppm in the test with Spodoptera litura and in the test with Plutella xylostella was 100% in each case.
For `CCS(=N)(=O)c1cc(-n2cc(C3CC3)nn2)cnc1-c1nc2cc(C(F)(F)C(F)(F)F)cnc2n1C` (stereo not shown) [Compound 28], the mortality at 500 ppm in the test with Laodelphax striatellus, in the test on Spodoptera litura and in the test with Plutella xylostella was 100% each time. Also, the pest or weed control at 500 ppm in the test on Myzus persicae came out at 100%. Moreover, the EC50 in the test with adult C. felis fleas [2] (setting [5]) and in the test on adult C. felis fleas [3] was 1 to 10 µM throughout.
Regarding `CCS(=N)(=O)c1cc(-n2cc(C3CC3)cn2)cnc1-c1nc2cc(C(F)(F)C(F)(F)F)nnc2n1C` (stereo not shown) [Compound 34], the EC50 in test [1] fell in the range of 10 to 100 µM. Further, the mortality at 500 ppm with Laodelphax striatellus, in the test on Spodoptera litura and in the test with Plutella xylostella was 100% throughout. For the same compound, the pest or weed control at 500 ppm with Myzus persicae worked out at 100%.
